Assay results taken from patent US7109341B2, “Therapeutic amides” (Wayne State University, priority 2002, dated 2006).
Several values for one entry are separate records, joined by “and”; a condition that tells them apart may be missing. Equal entries are not always repeated. Where two headings read alike, the source gives them in different places.

Tests used:
[1] = system: Mammary Adenocarcinoma 16/C; conditions: Cage 2, IV, BID 1–5, total 600 mg/kg
Description: Table 7. […] The animal was then re-implanted with Mam16/C/71.

[2] = system: Pancreatic Ductal Adenocarcinoma #03
Description: Pancreatic ductal adenocarcinoma-03, mammary adenocarcinoma-16/C, mammary adenocarcinoma-17/Adr, and human melanoma LOX were used in the studies. Tumors were maintained in the mouse strain of origin (C57B1/6 for Panc-03 and C3H for the mammary tumors). Balb/c SCID mice (B and T cell deficient) were used for tumor maintenance and chemotherapy trials involving the human melanoma LOX. Tumors were transplanted into the appropriate F1 hybrid (B6D2F1=C57B 1/6 female× DBA/2 male) or the strain of origin for the chemotherapy trials. Individual mouse body weights for each experiment were within 5 grams, and all mice were over 17 grams at the start of therapy. The mice were supplied food and water ad libitum.
Animals were pooled, implanted subcutaneously with 30 to 60 mg tumor fragments by a 12 gauge trocar on day 0, and again pooled before unselective distribution to the various treatment and control groups. For early stage treatment, chemotherapy was started within 1 to 3 days after tumor implantation while the number of cells was relatively small (10^7 to 10^8 cells). For upstaged or advanced staged trials, the tumors were allowed to grow for five or more days before treatment was started. Tumors were measured with a caliper twice weekly. […] Tumor weights are estimated from two-dimensional measurements:
Tumor weight (in mg)=(a×b^2)/2, where a and b are the tumor length and width in (mm), respectively.
a) Tumor growth delay (T−C value), where T is the median time (in days) required for the treatment group tumors to reach a predetermined size (e.g., 1,000 mg), and C is the median time (in days) for the control group tumors to reach the same size. Tumor-free survivors were are excluded from these calculations (cures are tabulated separately). This value is an important criterion of anti-tumor effectiveness because it allows the quantification of tumor cell kill.
b) Calculation of tumor cell kill for subcutaneously (SC) growing tumors. […] The conversion of the T−C values to log10 cell kill is possible because the Td of tumors re-growing post treatment (Rx) approximates the Td values of the tumors in untreated control mice.
In selected cases, both for historic in vivo evaluation data as well as data presented here, it is of value to compare log kill numbers from trials of markedly different testing schedules. […] It should be noted that an activity rating of +++ to ++++ is needed to effect partial regression (PR) or complete regression (CR) of 100 to 300 mg size masses of most transplanted solid tumors of mice. Thus, an activity rating of + or ++ would not be scored as active by usual clinical criteria. A PR is a reduction in tumor mass to less than 50% of pretreatment size. A CR is a reduction in tumor mass to below palpable size (i.e., reduction to zero detectable mass).
The T/C value in percent is an indication of anti-tumor effectiveness: A T/C=0% means no tumor growth. A T/C=100% means no anti-tumor activity, i.e., the treated and control tumors grew equally. […] A T/C value<10% is considered to indicate highly significant anti-tumor activity, and is the level used by NCI to justify a clinical trial if toxicity, formulation, and certain other requirements are met (termed DN-2 level activity).
Compounds as their sodium salts were prepared in a 1% sodium bicarbonate solution, H2O or phosphate buffered saline (PBS), with pH adjusted to 7.0 to 7.5 with HCl, and administered intravenously (IV) or orally (PO), at injection volumes of 0.2 mL per injection.

[3] = system: Pancreatic Ductal Adenocarcinoma 03; experiment: Evaluation against early stage Pancreatic Ductal Adenocarcinoma 03 in female BDF1 mice (Table 4); assay type: in vivo, mouse
Description: The higher dose requirement for compound 14e may be a disadvantage over compound 11b (Cage 14).

[4] = system: Mammary Adenocarcinoma 17/ADR; experiment: Evaluation against early stage Mammary Adenocarcinoma 17/ADR, C3H/He females (Table 3); assay type: in vivo; conditions: for % Body Wt Loss at Nadir / % T/C mass / Day of Nadir / Drug Deaths / Growth Delay / Log Kill / Median Tumor Mass on Day 9 (Range) / Tumor Free day-21 / Activity Rating: PO
[5] = system: Pancreatic Adenocarcinoma 03; experiment: Evaluation against early stage Pancreatic Adenocarcinoma 03 in BDF1 male mice (Table 1); assay type: in vivo, mouse; conditions: PO, QD3–6, 9–11, BID 7–8
Human Melanoma LOX = conditions: Cage 3; IV; qd 1–6, BID 7; total 700 mg/kg
[6] = Cage 3, IV-SC, qd 3–5, 8–11, BID 6, 7, total 780 mg/kg
[7] = Cage 4, IV-SC, qd 3–5, 8–11, BID 6, 7, total 390 mg/kg
[8] = Cage 5, IV, qd 3, 4, total 30 mg/kg
[9] = Cage 2, PO, 120 mg/kg/inj 2×/day days 3–9, total 1680 mg/kg
[10] = Cage 3, PO, 60 mg/kg/inj 2×/day days 3–9, total 840 mg/kg
[11] = Cage 4, PO, 30 mg/kg/inj 2×/day days 3–9, total 420 mg/kg
[12] = Cage 5, 145 mg/kg/inj QD-1–3 and 7–9, total 870 mg/kg
[13] = Cage 6, 90 mg/kg/inj QD-1–3 and 7–9, total 540 mg/kg
[14] = Cage 7, 55.8 mg/kg/inj QD-1–3 and 7–9, total 334.8 mg/kg
[15] = Cage 8, 34.6 mg/kg/inj QD-1–3, 145 mg/kg/inj QD-7–9, total 538.8 mg/kg
[16] = Cage 14, IV, 48 mg/kg/inj QD 3–9, total 336 mg/kg
[17] = IV, short, dose-intense schedule BID-1–3, 162 mg/kg total dose

## CC(Oc1ccc(Oc2ccc3ccc(Br)cc3n2)cc1)C(=O)NCCS(=O)(=O)[O-].[Na+] (stereo not drawn) [Compound 14g, Sodium (2-(4-(7-bromo-2-quinolinyl)oxy)phenoxy)propionylamino ethanesulfonate]
[1]
  Day of Wt. Loss Nadir: 4 days
  Drug Death (day of death): 0/6
  Log Cell Kill: 0.9
  Mean Body Wt. Loss in g/mouse: −2.3 g/mouse
  Median Tumor Burden in mg on d 9 (range): 230 mg
  T-C: 3.5 days
  T/C %: 14%
  Time to 1,000 mg in days (range): 11.5 days
  day of full body weight recovery: ≤ 10 days
[1]; listed as 14g (Racemic)
  Percent Body Weight Loss: −11.0%
  Tumor Free on d 161: 1/6
[1]; listed as 14g Racemic
  Comments (activity rating): + (0.7–1.2)
  Percent Body Weight Loss: 11%
  Tumor Free on d 161: One animal remained tumor free
[1]; listed as 14g racemic
  Percent Body Weight Loss: −11%
  Tumor Free on d 161: ⅕

## CC(Oc1ccc(Oc2cnc3ccc(Cl)cc3n2)cc1)C(=O)NCCS(=O)(=O)[O-].[Na+] (stereo not drawn) [Compound 14f, Sodium (2-(4-(7-chloro-2-quinoxalinyl)oxy)phenoxy)propionylamino ethanesulfonate]
[2]; [6]
  Drug Death (day of death): 0/5
  Log Cell Kill: 1.67
  Median Tumor Burden in mg on d17 (range): 126 mg
  T-C: 10.0 days
  T/C %: 10%
  Time to 1000 mg in days (range): 26 days
  Tumor Free on d35: 0/5
[2]; [7]
  Comments (activity rating): Inactive
  Drug Death (day of death): 0/5
  Log Cell Kill: 0.58
  Median Tumor Burden in mg on d17 (range): 600 mg
  T-C: 3.5 days
  T/C %: 50%
  Time to 1000 mg in days (range): 19.5 days
  Tumor Free on d35: 0/5
[2]; [8]
  Comments (activity rating): Inactive
  Drug Death (day of death): 0/5
  Log Cell Kill: 0.0
  Median Tumor Burden in mg on d17 (range): 1420 mg
  T-C: 0.0 days
  T/C %: >100%
  Time to 1000 mg in days (range): 16 days
  Tumor Free on d35: 0/5
[2]; mouse, in vivo
  Day of Wt. Loss Nadir: 11 days

## CC(Oc1ccc(Oc2ccc3ccc(Cl)cc3n2)cc1)C(=O)N(C)C (stereo not drawn) [Compound 14e, 2-{4-((7-Chloro-2-quinolinyl)oxy)phenoxy}propiondimethylamide]
[3]; [9]
  % Body Wt Loss at Nadir: +4.3%
  % T/C mass: 8.3%
  Day of Nadir: 9 days
  Drug Deaths: 0/5
  Growth Delay: 16.5 days
  Log Kill: 2.5
  Median Tumor Mass on Day 14 (Range): 126
  Tumor Free day-37: 0/5
  toxicity observations: no evident toxicity
[3]; [10]
  % Body Wt Loss at Nadir: +3.3%
  % T/C mass: 15%
  Activity Rating: +++ (2.0–2.8)
  Day of Nadir: 10 days
  Drug Deaths: 0/5
  Growth Delay: 14.5 days
  Log Kill: 2.2
  Median Tumor Mass on Day 14 (Range): 234
  Tumor Free day-37: 0/5
[3]; [11]
  % Body Wt Loss at Nadir: 0%
  % T/C mass: 37%
  Day of Nadir: 9 days
  Drug Deaths: 0/5
  Growth Delay: 3.5 days
  Log Kill: 0.5
  Median Tumor Mass on Day 14 (Range): 567
  Tumor Free day-37: 0/5

## COc1c(Cl)ccc2ncc(Oc3ccc(OC(C)C(=O)N(C)C)cc3)nc12 (stereo not drawn) [Compound 14c]
[4]; [12]
  % Body Wt Loss at Nadir: −5.8%
  % T/C mass: 20%
  Day of Nadir: 9 days
  Drug Deaths: 0/5
  Growth Delay: 5.5 days
  Log Kill: 1.5
  Median Tumor Mass on Day 9 (Range): 243
  Tumor Free day-21: 0/5
[4]; [13]
  % Body Wt Loss at Nadir: +1.4%
  % T/C mass: 31%
  Activity Rating: ++ (1.3–1.9)
  Day of Nadir: 9 days
  Drug Deaths: 0/5
  Growth Delay: 5.0 days
  Log Kill: 1.4
  Median Tumor Mass on Day 9 (Range): 369
  Tumor Free day-21: 0/5
[4]; [14]
  % Body Wt Loss at Nadir: +0.0%
  % T/C mass: 31%
  Activity Rating: + (0.7–1.2)
  Day of Nadir: 9 days
  Drug Deaths: 0/5
  Growth Delay: 3.5 days
  Log Kill: 1.0
  Median Tumor Mass on Day 9 (Range): 368
  Tumor Free day-21: 0/5
[4]; [15]
  % Body Wt Loss at Nadir: −1.4%
  % T/C mass: 55%
  Activity Rating: + (0.7–1.2)
  Day of Nadir: 11 days
  Drug Deaths: 0/5
  Growth Delay: 3.3 days
  Log Kill: 0.9
  Median Tumor Mass on Day 9 (Range): 660
  Tumor Free day-21: 0/5

## CC(Oc1ccc(Oc2cnc3ccc(Cl)cc3n2)cc1)C(N)=O (stereo not drawn) [Compound 14a]
[5]; Cage 5, total 1,320 mg/kg
  Day of Wt. Loss Nadir: 8 days
  Drug Deaths (days of death): 0/5
  Log Kill: 1.9
  Mean Body Wt. Loss in g/mouse: −0.8 g/mouse
  Median tumor burden in mg on day 14 (range): 126 mg
  Percent Body Wt. Loss: −3.6%
  T-C: 12 days
  T/C %: 7.3%
  Time to 1000 mg days (range): 23 days
  Tumor Free on day 21: 0/5
  toxicity observations: Toxicity was not reached
[5]; Cage 6, total 660 mg/kg
  Day of Wt. Loss Nadir: 5 days
  Drug Deaths (days of death): 0/5
  Log Kill: 0.7
  Mean Body Wt. Loss in g/mouse: −0.4 g/mouse
  Median tumor burden in mg on day 14 (range): 695 mg
  Percent Body Wt. Loss: −1.8%
  T-C: 4.5 days
  T/C %: 40%
  Time to 1000 mg days (range): 15.5 days
  Tumor Free on day 21: 0/5
[5]; Cage 7, total 330 mg/kg
  Day of Wt. Loss Nadir: 6 days
  Drug Deaths (days of death): no lethality and 0/5
  Log Kill: 0.3
  Median tumor burden in mg on day 14 (range): 1273 mg
  T-C: 2 days
  T/C %: 74%
  Time to 1000 mg days (range): 13 days
  Tumor Free on day 21: 0/5

## CC(Oc1ccc(Oc2ccc3ccc(Cl)cc3n2)cc1)C(=O)O (stereo not drawn) [Compound 11b]
[3]; [16]
  % Body Wt Loss at Nadir: −8.9%
  % T/C mass: 0%
  Activity Rating: +++ (2.0–2.8)
  Day of Nadir: 11 days
  Drug Deaths: 0/5
  Growth Delay: 17.5 days
  Log Kill: 2.6
  Median Tumor Mass on Day 14 (Range): 0
  Tumor Free day-37: 0/5
  day of full body weight recovery: ~15 days

## CC(Oc1ccc(Oc2cnc3ccc(Cl)cc3n2)cc1)C(=O)NCCS(=O)(=O)[O-].[Na+] [Compound 14f (S)]
Human Melanoma LOX
  Comments (activity rating): Inactive
  Drug Death (day of death): 0/5
  Log Cell Kill: 0.3
  Median Tumor Burden in mg on d 9 (range): 994 mg
  T-C: 1.0 days
  T/C %: 71%
  Time to 1000 mg days (range): 9.0 days
  Tumor Free on d 18: 0/5

## COc1c(Cl)ccc2ccc(Oc3ccc(OC(C)C(=O)O)cc3)nc12 (stereo not drawn) [Compound 13a, reference compound]
[4]; [17]
  T/C: 7%
  log kill: 1.5
